From PubChem BioAssay (NCI)
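Test compounds were applied to cells in 96-well plates for 48 hours at 5 doses. At the TGI there is no net growth.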

How the values were obtained:
Assay in all cases: NCI-60 cell line screen, 48 h
[1] = system: SF-268 CNS
[2] = system: U251 CNS
[3] = system: A498 renal
[4] = system: SF-295 CNS
[5] = system: OVCAR-5 ovarian
[6] = system: TK-10 renal
[7] = system: MDA-MB-231 breast
[8] = system: T-47D breast
[9] = system: MALME-3M melanoma
[10] = system: 786-0 renal
[11] = system: LOX IMVI melanoma
[12] = system: MCF7 breast
[13] = system: BT-549 breast
[14] = system: SK-OV-3 ovarian
[15] = system: HCT-116 colon
[16] = system: HT29 colon
[17] = system: NCI-H522 lung
[18] = system: UACC-62 melanoma
[19] = system: SNB-19 CNS
[20] = system: IGROV1 ovarian
[21] = system: PC-3 prostate
[22] = system: OVCAR-4 ovarian
[23] = system: SW-620 colon
[24] = system: UO-31 renal
[25] = system: CAKI-1 renal
[26] = system: EKVX NSCLC
[27] = system: SK-MEL-5 melanoma
[28] = system: ACHN renal
[29] = system: MOLT-4 leukemia
[30] = system: MDA-N
[31] = system: RPMI-8226 leukemia
[32] = system: DU-145 prostate
[33] = system: SK-MEL-2 melanoma
[34] = system: COLO 205 colon
[35] = system: OVCAR-3 ovarian
[36] = system: HOP-92 NSCLC
[37] = system: NCI-H460 lung
[38] = system: A549 NSCLC
[39] = system: HCT-15 colon
[40] = system: SNB-75 CNS
[41] = system: M14 melanoma
[42] = system: HOP-62 NSCLC
[43] = system: SR leukemia
[44] = system: NCI-H226 lung
[45] = system: NCI/ADR-RES ovarian
[46] = system: SK-MEL-28 melanoma
[47] = system: KM12 colon
[48] = system: UACC-257 melanoma
[49] = system: RXF 393 renal
[50] = system: MDA-MB-435
[51] = system: K-562 leukemia
[52] = system: HS 578T breast
[53] = system: CCRF-CEM leukemia
[54] = system: NCI-H23 lung
[55] = system: HL-60(TB) leukemia
[56] = system: HCC-2998 colon
[57] = system: SN12C renal
[58] = system: OVCAR-8 ovarian
[59] = system: SF-539 CNS

Measured: TGI

C[N+]1=C2[B-](C(C)(C)C)=[N+](C(C)(C)C)[B-]2(C(C)(C)C)[N+](C)=C2[B-](C(C)(C)C)=[N+](C(C)(C)C)[B-]21C(C)(C)C (configuration not stated)
> 100 µM: [1] | [2] | [3] | [4] | [5] | [6] | [7] | [8] | [9] | [10] | [11] | [12] | [13] | [14] | [15] | [16] | [17] | [18] | [19] | [20] | [21] | [22] | [23] | [24] | [25] | [26] | [27] | [28] | [29] | [30] | [31] | [32] | [33] | [34] | [35] | [36] | [37] | [38] | [39] | [40] | [41] | [42] | [43] | [44] | [45] | [46] | [47] | [48] | [49] | [50] | [51] | [52] | [53] | [54] | [55] | [56] | [57] | [58]

OC1C2[C@@H](O)CCCN2C[C@@H](O)[C@H]1O (some centres not stated)
> 100 µM: [1] | [2] | [3] | [4] | [5] | [6] | [7] | [8] | [9] | [10] | [11] | [12] | [13] | [14] | [15] | [16] | [17] | [18] | [19] | [20] | [21] | [22] | [23] | [24] | [25] | [26] | [27] | [28] | [29] | [30] | [31] | [32] | [33] | [34] | [35] | [36] | [59] | [37] | [38] | [39] | [40] | [41] | [42] | [43] | [44] | [45] | [46] | [47] | [48] | [49] | [50] | [51] | [52] | [53] | [54] | [55] | [56] | [57] | [58]
